SMILES strings stand for the structures.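 Protocol summary: plate cells (96-well), add compound at 5 concentrations, incubate 48 h, interpolate endpoints linearly. The concentration for 50% growth inhibition is given as GI50.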 Active and inactive are the calls of the source. Cut-off read from the data, not from the text of the source: active = GI50 up to about 1.1 µM and inactive = higher.

Some test systems named below: 786-0; CCRF-CEM; HCC 2998; HCT-116; HT-29; IGROV-1; MOLT-4; NCI-H460; RPMI-8226; SF-539; SK-MEL-2; SN12C; SNB-19; SNB-75; UACC-257.
Assay in all cases: NCI tumour cell line growth inhibition, 48 h

With `N=c1oc2cc(O)c(O)cc2cc1C(N)=O`, the GI50 with 786-0 was 43.5 µM (inactive); with CCRF-CEM, 33 µM (inactive); in the assay with HCC 2998, > 100 µM (inactive); with HCT-116, > 100 µM (inactive); with HT-29, > 100 µM (inactive); in the assay on IGROV-1 it was > 100 µM (inactive). Moreover, the GI50 in the assay on MOLT-4 was 84.9 µM (inactive); in the assay on NCI-H460 it was > 100 µM (inactive); with RPMI-8226 it was > 100 µM (inactive); in the assay with SF-539, > 100 µM (inactive); with SK-MEL-2, > 100 µM (inactive); in the assay on SN12C it was > 100 µM (inactive). The GI50 in the assay on SNB-19 is > 100 µM (inactive); in the assay with SNB-75, 25 µM (inactive); in the assay with UACC-257, > 100 µM (inactive).
`Cc1nc(N)nn1C1OCC(O)C(O)C1O` (configuration not stated): the GI50 in the assay with 786-0, in the assay on CCRF-CEM, with HCC 2998, in the assay with HCT-116, in the assay on HT-29 and with IGROV-1 was > 100 µM (inactive) throughout. The GI50 with MOLT-4, with NCI-H460, with RPMI-8226, in the assay with SF-539, in the assay with SK-MEL-2 and with SN12C was > 100 µM (inactive) each time. In addition, the results for the GI50 in the assay on SNB-19, in the assay with SNB-75 and with UACC-257 were > 100 µM (inactive), 93.5 µM (inactive) and > 100 µM (inactive), respectively.
Turning to `COc1cc([C@@H]2c3cc4c(cc3[C@@H](NC(=O)c3cccc(N)c3)C3COC(=O)[C@@H]32)OCO4)cc(OC)c1O` (some centres not stated), the GI50 with 786-0 was 0.421 µM (active); in the assay with CCRF-CEM, 0.0802 µM (active); with HCC 2998, 2.21 µM (inactive); in the assay on HCT-116 it was 2.28 µM (inactive); in the assay with HT-29, 2.83 µM (inactive); in the assay on IGROV-1, 6.05 µM (inactive). Also, the GI50 in the assay with MOLT-4 is < 0.0147 µM (active); with NCI-H460, < 0.01 µM (active); in the assay on RPMI-8226, 0.507 µM (active); in the assay on SF-539, 0.284 µM (active); in the assay on SK-MEL-2, 3.3 µM (inactive); in the assay on SN12C it was 0.445 µM (active). Further, the GI50 with SNB-19 is 0.569 µM (active); in the assay with SNB-75, 1.48 µM (inactive); with UACC-257 it was 10.7 µM (inactive).
With `O=C(c1ccccc1)c1c(CC(O)c2cccnc2)n(C(=O)c2ccccc2)c2ccccc12` (configuration not stated), the GI50 in the assay on 786-0 is 33.2 µM (inactive); in the assay on CCRF-CEM it was 22.5 µM (inactive); in the assay with HCC 2998 it was 16.5 µM (inactive); with HCT-116 it was 15.9 µM (inactive); with HT-29 it was 18.8 µM (inactive); with IGROV-1, 19.1 µM (inactive). Also, the GI50 in the assay with MOLT-4 is 17.9 µM (inactive); in the assay on NCI-H460, 16.9 µM (inactive); with RPMI-8226, 15.8 µM (inactive); in the assay on SF-539 it was 16.6 µM (inactive); in the assay with SK-MEL-2, 20.3 µM (inactive); with SNB-19, 18.9 µM (inactive). For the same compound, the GI50 was 3.72 µM (inactive) with SNB-75 and 22.4 µM (inactive) in the assay with UACC-257.
For the compound `COc1ccc(C)cc1C1CCC(=O)O1` (configuration not stated), the GI50 with 786-0, in the assay with CCRF-CEM, in the assay on HCC 2998, in the assay with HCT-116, in the assay on HT-29 and with IGROV-1 was > 100 µM (inactive) each time. Further, the GI50 in the assay with MOLT-4, with NCI-H460, with RPMI-8226, with SF-539, in the assay on SK-MEL-2 and in the assay with SN12C was > 100 µM (inactive) in each case. Moreover, the GI50 with SNB-19, in the assay with SNB-75 and in the assay with UACC-257 was > 100 µM (inactive) each time.
In the case of `NC(=O)c1csc(CCCCCCc2nc(C(N)=O)cs2)n1`, the GI50 in the assay with 786-0 was > 45.3 µM (inactive); with CCRF-CEM it was > 43.5 µM (inactive); with HCC 2998 it was > 100 µM (inactive); in the assay on HCT-116, > 56.2 µM (inactive); in the assay on HT-29, > 40.9 µM (inactive); in the assay with IGROV-1 it was > 100 µM (inactive). The GI50 in the assay on MOLT-4 is > 100 µM (inactive); in the assay on NCI-H460, > 100 µM (inactive); in the assay with RPMI-8226 it was > 50.9 µM (inactive); in the assay with SF-539, > 100 µM (inactive); in the assay with SK-MEL-2, > 100 µM (inactive); in the assay on SN12C it was > 100 µM (inactive). Further, the values for the GI50 with SNB-19, in the assay with SNB-75 and in the assay with UACC-257 were > 100 µM (inactive), > 100 µM (inactive) and > 62.5 µM (inactive), respectively.
On to `CNC(C)Cc1ccc(O)cc1` (configuration not stated), for which the GI50 in the assay with 786-0, in the assay with CCRF-CEM, in the assay on HCC 2998, in the assay with HCT-116, in the assay with HT-29 and with IGROV-1 was > 100 µM (inactive) each time. In addition, the GI50 in the assay on MOLT-4, with NCI-H460, with RPMI-8226, with SF-539, in the assay with SK-MEL-2 and in the assay on SN12C was > 100 µM (inactive) in each case. Besides, the GI50 with SNB-19, in the assay on SNB-75 and in the assay with UACC-257 was > 100 µM (inactive) throughout.
For `O=C1C(=O)N(c2cc(Cl)ccc2Cl)C(=O)C(=O)C1c1nc2ccccc2o1`, the GI50 in the assay with 786-0 was > 100 µM (inactive); in the assay with CCRF-CEM, 30.2 µM (inactive); in the assay on HCC 2998, > 100 µM (inactive); with HCT-116, > 100 µM (inactive); in the assay with HT-29 it was > 100 µM (inactive); in the assay with IGROV-1, > 100 µM (inactive). Besides, the GI50 in the assay on MOLT-4 is 30.1 µM (inactive); with NCI-H460, > 100 µM (inactive); in the assay with RPMI-8226, > 100 µM (inactive); with SF-539, > 100 µM (inactive); in the assay on SK-MEL-2, > 100 µM (inactive); in the assay on SN12C it was > 100 µM (inactive). Also, the values for the GI50 with SNB-19, in the assay on SNB-75 and with UACC-257 were > 100 µM (inactive), > 67.6 µM (inactive) and > 100 µM (inactive), respectively.
On to `CN(C)/C(=N\C#N)N(Cc1ccccc1)Cc1ccccc1`, for which the GI50 is > 100 µM (inactive) with 786-0; 44.2 µM (inactive) in the assay on CCRF-CEM; 72.1 µM (inactive) with HCC 2998; 53.5 µM (inactive) in the assay on HCT-116; 50.9 µM (inactive) with HT-29; > 100 µM (inactive) with IGROV-1. Further, the GI50 in the assay with NCI-H460 is 17.7 µM (inactive); with RPMI-8226 it was 32.5 µM (inactive); with SF-539 it was > 100 µM (inactive); with SK-MEL-2 it was > 100 µM (inactive); in the assay on SN12C, > 100 µM (inactive); with SNB-19, > 100 µM (inactive). In addition, the GI50 in the assay on SNB-75 and with UACC-257 was > 100 µM (inactive) in each case.
For the compound `COCC1N=C(c2ccc(OC)c(OCc3ccccc3)c2OC)O[C@H]1c1ccccc1` (some centres not stated), the GI50 is 29.9 µM (inactive) in the assay on 786-0; 15.3 µM (inactive) in the assay with CCRF-CEM; 35.6 µM (inactive) in the assay with HCC 2998; 11.9 µM (inactive) in the assay with HCT-116; 19.8 µM (inactive) in the assay on HT-29; 32.4 µM (inactive) in the assay on IGROV-1. Further, the GI50 is 5.81 µM (inactive) with MOLT-4; 11.1 µM (inactive) in the assay with NCI-H460; 5.65 µM (inactive) in the assay with RPMI-8226; 17.4 µM (inactive) with SF-539; 23.4 µM (inactive) in the assay with SK-MEL-2; 20.5 µM (inactive) in the assay on SN12C. Also, the figures for the GI50 with SNB-19 and in the assay with SNB-75 were 29.9 µM (inactive) and 25.3 µM (inactive), respectively.

The values above are taken from ChEMBL document CHEMBL1201862, “PubChem BioAssay data set” (2004).
